Source: patent US20180161459A1, “Methods of Screening for Drugs to Prevent Noise-Induced Hearing Loss” (Sound Pharmaceuticals Incorporated, priority 2015, published 2018)

Assays:
[1] = test system: human subjects; experiment: Calibrated sound challenge: temporary threshold shift (TTS) by serial pure tone audiometry, randomized double-blinded placebo-controlled Phase 2 study; assay type: in vivo
Protocol: (§1) A study was performed to evaluate the safety and efficacy of an orally delivered candidate composition in human subjects. The candidate composition ebselen (aka. SPI-1005) was evaluated for efficacy using the methods disclosed herein. Ebselen or placebo was administered in a randomized double-blinded study to subjects, who were then exposed to a calibrated sound or noise challenge. Post-sound exposure pure tone audiometry was compared with baseline (i.e., immediately pre-sound exposure) testing to determine group mean level hearing threshold shift changes between treated and placebo groups. The single center, randomized, double-blinded, placebo-controlled study enrolled 83 subjects, all between the ages of 18 and 31. All enrolled subjects ranged from having slight hearing loss (less than or equal to 25 dB HL) to normal hearing.
Each subject was instructed to avoid non-occupational sound exposure (e.g., concerts, firearms, fireworks, power tools) during the 24-hour period preceding baseline testing and throughout the duration of the study. Vital signs (i.e., heart rate, blood pressure, respirations, temperature) were within normal limits for each subject. Subjects had conventional audiologic assessments at baseline consisting of: (a) pure tone audiometry to confirm that subjects had symmetric hearing with air conduction thresholds no worse than 25 dB HL at frequencies between 0.25 to 8 kHz bilaterally, (b) no significant threshold asymmetry (i.e. greater than 15 dB) between any subject's ears at any tested frequency,(c) no significant air-bone gaps (i.e. greater than 10 dB). Bone conduction testing with masking as conducted at screening at 250, 500, 1000, 2000, or 4000 Hz if the air-conduction threshold was greater than 15 dB HL, and (d) Type A tympanograms bilaterally, defined as a range of −140 to +40 daPa based on the 90% range for adults. Subjects with pure tone audiometry hearing thresholds>25 dB HL at any tested frequency (250, 500, 1000, 2000, 3000, 4000, 6000, and 8000 Hz) for either ear were excluded from the study.
Ebselen, or 2-phenyl-1,2-benzisoselenazol-3 (2H)-one, was selected as a candidate composition. The ebselen formulation was a capsule containing 200 mg of ebselen and 150 mg of the excipients microcrystalline cellulose, sodium croscarmellose, and magnesium sterate. Each subject received ebselen at one of three dosages (either 200 mg, 400 mg, or 600 mg) or received a placebo, delivered orally twice daily for four days, beginning two days prior to exposure to a controlled sound and continuing on the day of and on the day following the exposure to the controlled sound. The study was randomized to assign each subject to a treatment or placebo group. All subjects took 3 capsules in the morning (AM) and 3 capsules in the evening (PM) (each capsule either contained 200 mg ebselen or placebo), ideally 12 hours apart.
On Day 3 of the ebselen treatment, subjects underwent audiometric testing immediately prior to sound-exposure to establish their baseline hearing levels. Subjects listened to a 100 dBA SPL sound exposure delivered via insert earphones from a Personal Music Player (PMP, specifically an iPod®) for 4 continuous hours. The sound exposure method was similar to that discussed in Le Prell, C. et al., Ear & Hearing 33:e44-e58, 2012, hereby incorporated by reference in its entirety. The music levels were measured using Bruel & Kjaer type 4157 artificial ear couplers. Subjects listened to sound from music playlists with a choice of rock or pop music. No changes in volume or duration of the sound exposure were permitted. At 15 minutes, 75 minutes, 135 minutes, 195 minutes, 24 hours, and 1 week after sound exposure, subjects were tested for pure tone audiometric thresholds. Serial pure tone audiometry determined the incidence (greater or equal to 10 dB HL), severity (dB HL) and duration (up to 1 week post sound exposure) of the TTS. Audiometric data was collected at 250, 500, 1000, 2000, 3000, 4000, 6000, and 8000 Hz. […]

[2] = test system: human subjects; experiment: Safety and tolerability of orally delivered ebselen in the Phase 2 study; assay type: in vivo; settings: oral 200, 400 or 600 mg twice daily for four days; CBC, Chemistry-20, Chest X-ray
Protocol: as §1
Ebselen, or 2-phenyl-1,2-benzisoselenazol-3 (2H)-one, was selected as a candidate composition. […]
Side effects of the ebselen delivery were analyzed. Clinical signs and symptoms from physical exam were evaluated, such as shortness of breath, wheezing, coughing, hemoptysis, resting pulse oximetry, chest X-rays, and laboratory findings such as hematology, chemistry, and urinalysis. Exposure to ebselen was quantified from plasma by LC-MS/MS. […]

In the case of `O=c1c2ccccc2[se]n1-c1ccccc1` [ebselen, 2-phenyl-1,2-benzisoselenazol-3 (2H)-one], the “TTS at 4 kHz vs. placebo at later time points” value ([1]; 1.25, 2.25 and 3.25 hours post sound exposure, 400 mg dose group, ITT) is reported as “significantly reduced”, the “TTS incidence (subjects with greater or equal to 10 dB HL shift in either ear)” value ([1]; 15 minutes post 100 dBA SPL 4 h sound exposure, oral twice daily for four days, 600 mg dose most effective, ITT, placebo 60%) is reported as 20% and the “TTS averaged across all tested frequencies, or mean across 3, 4, 6 kHz or 4, 6, 8 kHz” value ([1]; 15 minutes post sound exposure, 400 mg dose most effective, ITT) is reported as “clinically relevant reductions”. The “TTS severity at 4 kHz” value ([1]; 15 minutes post sound exposure, oral twice daily for four days, 400 mg dose most effective, ITT, placebo 4.1) was 1.3 dB HL, the “Incidence of subjects that returned to baseline hearing within 24 hours” value ([1]; all ebselen treatment groups compared with placebo, FIG. 2) was “greater incidence of subjects that returned to baseline hearing within 24 hours” and the TTS duration ([1]; oral twice daily for four days, placebo 24 hrs) was 1.3 h. For the same compound, the “Tolerability / drug-related adverse events” value [2] was “well-tolerated with no drug-related adverse events”.
